{"source": "patent US20230255957A1", "about": "“VIRAL ENTRY INHIBITORS AND RNA POLYMERASE INHIBITORS” (SELVA THERAPEUTICS, INC., priority 2020, published 2023)", "key": {"[1]": {"system": "SARS-CoV-2", "test": "In vitro cytopathogenic effect / EC100 assay, K11777 and EIDD-1931, Vero E6", "format": "cell-based", "details": "for EC100: compound alone", "method": "(§1) Controlled in vitro assays were conducted to measure the concentrations of K11777 and EIDD-1931 in combination required to induce 100% maximal response (EC100) for SARS-CoV-2 activity in the Vero E6 cell line. The concentrations of the combination are also compared to the concentrations required for each compound to achieve the same result individually.\nTable 4 is split into two portions (a) and (b) above to accommodate page size. The first columns of 4(a) and (b) show concentration values from 10 μM (micromolar) to 0.078 μM. […] The designation “ND” indicates no cytopathogenic effect was detected."}, "[2]": {"test": "Cytotoxicity to host cells, Vero E6", "format": "cell-based", "details": "African green monkey", "method": "(§2) Controlled […] assays were conducted to measure the half-maximal effective concentration (EC50) of K777 required to prevent entry of SARS-CoV-2 in various cell lines, as well as cytotoxicity to the host cells (CC50)."}, "[3]": {"test": "Cytotoxicity to host cells, Calu-3", "format": "cell-based", "details": "human, Calu-3 cells", "method": "as §2"}, "[4]": {"test": "Cytotoxicity to host cells, HeLa/ACE2", "format": "cell-based", "details": "human", "method": "as §2"}, "[5]": {"system": "SARS-CoV-2", "test": "microbe, parasite or virus in culture", "format": "cell-based", "details": "read-out: Inhibition of Viral Infectivity EC50"}, "[6]": {"system": "SARS-CoV-2", "test": "In vitro cytopathogenic effect / EC100 assay, K11777 and Remdesivir, Vero E6", "format": "cell-based", "details": "for EC100: compound alone", "method": "as §1, with “Remdesivir” for “EIDD-1931”\nThe designation “ND” indicates no cytopathogenic effect was detected. The designation “C” indicates the composition itself caused a cytotoxic effect. The designation “n/a” means no observation was made."}, "[7]": {"system": "SARS-CoV-2", "test": "Follow up pilot study, non-human primate model, organ assessment at autopsy", "format": "in vivo, African Green Monkey", "details": "for Lung weight % of weight / Lung weight Left lobe / Lung weight Right lobe / Lung weight Total: 7 days, autopsy day 7", "method": "Following the initial pilot study, a follow up pilot study was conducted to further explore the potential for efficacy of K777 against SARS-CoV-2 in a non-human primate model (African Green Monkey). The study included eight subjects (N=8), with two controls and six receiving K777. Unlike in the initial pilot, in this follow-up pilot no subjects were pretreated with K777. Each subject was inoculated with SARS-CoV-2 for 8 hours. Each subject was then treated with K777 for 7 days (33 mg/kg/day (n=3) or 100 mg/kg/day (n=3)) or placebo (n=2). Each subject was then sacrificed, and an autopsy was performed at day 7. During the study, measurements of viral load were determined from serial nasal and pharyngeal swabs as well as brochoalveolar fluid (BAL) samples. During autopsy, organ assessment was performed. The results are shown in Tables 2.2, 2.3, 2.4 and 2.5 below and depicted in FIGS. 5 to 12. FIGS. 7 to 10 depict histological slides of lung tissue taken from the subjects in the follow up pilot study after completion of the study. FIG. 6 depicts histological slides of lung tissue taken from a normal human lung and from a human lung with diffuse alveolar damage (DAD) for comparison. In FIGS. 7 to 10, NB numbers are subject identifiers. In FIGS. 8 to 10, “RL” means right lung and “LL” means left lung. FIG. 11 depicts the histopathology shown in FIGS. 8 to 10 in one chart for side-by-side comparison. FIG. 12 depicts viral load for each group on day 1 and day 7 of the follow up pilot study."}, "[8]": {"test": "Cytotoxicity to host cells, A549/ACE2", "format": "cell-based", "details": "human", "method": "as §2"}, "[9]": {"system": "SARS-CoV-2", "test": "Follow up pilot study, viral load in pharyngeal and nasal swabs and BAL", "format": "in vivo, African Green Monkey"}, "[10]": {"system": "SARS-CoV-2", "test": "Initial pilot study, non-human primate model, organ assessment at autopsy", "format": "in vivo, African Green Monkey", "details": "100 mg/kg/day, 7 days, pretreated; autopsy day 7", "method": "An initial pilot study was conducted to determine the potential for efficacy of K777 against SARS-CoV-2 in a non-human primate model (African Green Monkey). The study included six subjects (N=6), with two controls receiving vehicle only and four receiving K777. Each subject was pretreated with K777 (100 mg/kg) or placebo (control). Each subject was then inoculated with SARS-CoV-2 at […] (3-4 hours after first dose of K777). Each subject was then treated with K777 for 6 additional days (7 days total) (100 mg/kg/day). Each subject was then sacrificed and an autopsy was performed at day 7. During the study, daily measurement of viral titers was performed via BAL, nasal swabs, and pharyngeal swabs. During autopsy, organ assessment was performed. The results are shown in Table 2.1 below and depicted in FIG. 4."}, "[11]": {"details": "conc 0.078 uM (of K777 in combinations), Vero E6"}, "[12]": {"details": "conc 0.3125 uM (of K777 in combinations), Vero E6"}, "[13]": {"details": "conc 0.1 μM (of K11777 in combinations)"}, "[14]": {"details": "conc 0.3 μM (of K11777 in combinations)"}, "[15]": {"details": "conc 1 μM (of K11777 in combinations)"}, "[16]": {"details": "African Green Monkey, SARS-CoV-2"}}, "note": "Values joined by “and” are separate entries in the source; they are usually repeats but may differ in a detail not shown here. Equal entries are not always repeated. Where two headings read alike, the source gives them in different places.", "data": [{"compound": "O=c1[nH]/c(=N\\O)ccn1[C@@H]1O[C@H](CO)[C@@H](O)[C@H]1O", "note": "[EIDD-1931, Beta-d-N4-hydroxycytidine, reference compound]", "values": [{"measurement": "cytopathogenic effect", "setting": "[1]", "result": "CPE"}, {"measurement": "EC100", "setting": "[1]; Vero E6", "result": 5, "unit": "µM"}, {"measurement": "cytopathogenic effect", "setting": "[1]; [11]", "result": "CPE"}, {"measurement": "cytopathogenic effect", "setting": "[1]; [12]", "result": "CPE"}, {"measurement": "cytopathogenic effect", "setting": "[1]; conc 2.5 uM (of K777 in combinations), Vero E6", "result": "CPE"}]}, {"compound": "CN1CCN(C(=O)N[C@@H](Cc2ccccc2)C(=O)N[C@H](/C=C/S(=O)(=O)c2ccccc2)CCc2ccccc2)CC1", "note": "[K777]", "values": [{"measurement": "CC50", "setting": "[2]", "result": "> 10", "unit": "µM"}, {"measurement": "CC50", "setting": "[3]", "result": "> 10", "unit": "µM"}, {"measurement": "CC50", "setting": "[4]", "result": "> 10", "unit": "µM"}, {"measurement": "EC50", "setting": "[5]; Severe acute respiratory syndrome coronavirus 2, A549-ACE2, A549/ACE2", "result": "< 0.08", "unit": "µM"}, {"measurement": "EC50", "setting": "[5]; Severe acute respiratory syndrome coronavirus 2, Calu-3, Calu-3", "result": "3 to 5", "unit": "µM"}, {"measurement": "EC50", "setting": "[5]; Severe acute respiratory syndrome coronavirus 2, HeLa-ACE2, HeLa/ACE2", "result": 0.004, "unit": "µM"}, {"measurement": "EC100", "setting": "[6]", "result": 1, "unit": "µM"}, {"measurement": "cytopathogenic effect", "setting": "[6]; [13]", "result": "CPE"}, {"measurement": "cytopathogenic effect", "setting": "[6]; [14]", "result": "CPE"}, {"measurement": "cytopathogenic effect", "setting": "[6]; [15]", "result": "CPE"}, {"measurement": "Lung weight % of weight", "setting": "[7]; 33 mg/kg/day", "result": "0.66% and 0.95% and 0.54%"}, {"measurement": "Lung weight Left lobe", "setting": "[7]; 33 mg/kg/day", "result": "24 g and 28 g and 17 g"}, {"measurement": "Lung weight Right lobe", "setting": "[7]; 33 mg/kg/day", "result": "20 g and 28 g and 24 g"}, {"measurement": "Lung weight Total", "setting": "[7]; 33 mg/kg/day", "result": "44 g and 56 g and 41 g"}, {"measurement": "Lung weight % of weight", "setting": "[7]; 100 mg/kg/day", "result": "0.50% and 0.46% and 0.56%"}, {"measurement": "Lung weight Left lobe", "setting": "[7]; 100 mg/kg/day", "result": "14 g and 15 g"}, {"measurement": "Lung weight Right lobe", "setting": "[7]; 100 mg/kg/day", "result": "18 g and 19 g"}, {"measurement": "Lung weight Total", "setting": "[7]; 100 mg/kg/day", "result": "32 g and 33 g and 34 g"}, {"measurement": "lung damage (histopathology)", "setting": "[7]; [16]", "result": "protected the lung against diffuse alveolar damage (DAD) and ARDS-like lung damage"}, {"measurement": "lung to body weight ratios", "setting": "[7]; both pilot studies", "result": "able to maintain normal lung to body weight ratios"}, {"measurement": "CC50", "setting": "[8]", "result": "> 10", "unit": "µM"}, {"measurement": "EC100", "setting": "[1]; Vero E6", "result": 2.5, "unit": "µM"}, {"measurement": "cytopathogenic effect", "setting": "[1]; [11]", "result": "CPE"}, {"measurement": "cytopathogenic effect", "setting": "[1]; conc 0.156 uM (of K777 in combinations), Vero E6", "result": "CPE"}, {"measurement": "cytopathogenic effect", "setting": "[1]; [12]", "result": "CPE"}, {"measurement": "cytopathogenic effect", "setting": "[1]; conc 0.625 uM (of K777 in combinations), Vero E6", "result": "CPE"}, {"measurement": "cytopathogenic effect", "setting": "[1]; conc 1.25 uM (of K777 in combinations), Vero E6", "result": "CPE"}, {"measurement": "Viral Load -- Subgenomic E", "setting": "[9]; 30 mg/kg/day, BAL, d5", "result": "3.69E+04", "unit": "Eq. VC/mL"}, {"measurement": "Viral Load -- Subgenomic E", "setting": "[9]; 30 mg/kg/day, Nasal, d3", "result": "1.62E+06", "unit": "Eq. VC/mL"}, {"measurement": "Viral Load -- Subgenomic E", "setting": "[9]; 30 mg/kg/day, Nasal, d5", "result": "2.07E+04 Eq. VC/mL and 1.91E+04 Eq. VC/mL"}, {"measurement": "Viral Load -- Genomic N1", "setting": "[9]; 30 mg/kg/day, Phary, d3", "result": "1.11E+09 Eq. VC/mL and 1.87E+09 Eq. VC/mL"}, {"measurement": "Viral Load -- Genomic N1", "setting": "[9]; 100 mg/kg/day, BAL, d1", "result": "3.38E+08 Eq. VC/mL and 2.69E+08 Eq. VC/mL"}, {"measurement": "Viral Load -- Subgenomic E", "setting": "[9]; 100 mg/kg/day, BAL, d3", "result": "2.45E+06 Eq. VC/mL and 1.58E+06 Eq. VC/mL"}, {"measurement": "Viral Load -- Subgenomic N", "setting": "[9]; 100 mg/kg/day, BAL, d3", "result": "1.31E+07 Eq. VC/mL and 7.93E+06 Eq. VC/mL"}, {"measurement": "Viral Load -- Subgenomic N", "setting": "[9]; 100 mg/kg/day, BAL, d7", "result": "1.40E+05", "unit": "Eq. VC/mL"}, {"measurement": "Viral Load -- Subgenomic E", "setting": "[9]; 100 mg/kg/day, Nasal, d3", "result": "7.94E+07", "unit": "Eq. VC/mL"}, {"measurement": "Viral Load -- Subgenomic N", "setting": "[9]; 100 mg/kg/day, Nasal, d7", "result": "4.19E+06", "unit": "Eq. VC/mL"}, {"measurement": "Viral Load -- Subgenomic E", "setting": "[9]; 100 mg/kg/day, Phary, d3", "result": "3.34E+07 Eq. VC/mL and 2.04E+07 Eq. VC/mL and 3.29E+07 Eq. VC/mL"}, {"measurement": "Viral Load -- Subgenomic N", "setting": "[9]; 100 mg/kg/day, Phary, d7", "result": "3.64E+07 Eq. VC/mL and 5.51E+07 Eq. VC/mL"}, {"measurement": "viral load as compared to the vehicle", "setting": "[9]; [16]", "result": "significantly reduced viral load as compared to the vehicle"}, {"measurement": "Lung weight % of weight", "setting": "[10]", "result": "0.52% and 0.49% and 0.51% and 0.58%"}, {"measurement": "Lung weight Left lobe", "setting": "[10]", "result": "13.06 g and 12.79 g and 19.06 g and 21.72 g"}, {"measurement": "Lung weight Right lobe", "setting": "[10]", "result": "17.22 g and 16.99 g and 14.43 g and 16.84 g"}, {"measurement": "Lung weight Total", "setting": "[10]", "result": "30.28 g and 29.78 g and 33.49 g and 38.56 g"}, {"measurement": "Lymph enlargement", "setting": "[10]", "result": "2 fold and 2.5 fold"}]}, {"compound": "CCC(CC)COC(=O)[C@H](C)N[P@](=O)(OC[C@H]1O[C@@](C#N)(c2ccc3c(N)ncnn23)[C@H](O)[C@@H]1O)Oc1ccccc1", "note": "[Remdesivir]", "values": [{"measurement": "EC100", "setting": "[6]", "result": 3, "unit": "µM"}, {"measurement": "cytopathogenic effect", "setting": "[6]; conc 0.01 μM (of K11777 in combinations)", "result": "CPE"}, {"measurement": "cytopathogenic effect", "setting": "[6]; conc 0.03 μM (of K11777 in combinations)", "result": "CPE"}, {"measurement": "cytopathogenic effect", "setting": "[6]; [13]", "result": "CPE"}, {"measurement": "cytopathogenic effect", "setting": "[6]; [14]", "result": "CPE"}, {"measurement": "cytopathogenic effect", "setting": "[6]; [15]", "result": "CPE"}, {"measurement": "cytopathogenic effect", "setting": "[6]; conc 3 μM (of K11777 in combinations)", "result": "CPE"}]}]}
